From ChEMBL document CHEMBL5634169 (Bioorg Med Chem Lett, 2024)

Assay: Cytotoxicity against human A549 cells by SRB assay
Assay type: toxicity, cell-based

Row | SMILES | CC50
1 | COc1ccc(C(=O)N/N=C(\C)c2ccc(NC(=O)Cc3cccs3)cc2)cc1 | 37.6 µM
2 | C/C(=N\NC(=O)c1ccc(F)cc1)c1ccc(NC(=O)Cc2cccs2)cc1 | 55.3 µM
3 | CCC(CC)O[C@@H]1C=C(C(=O)O)C[C@H](N)[C@H]1NC(C)=O [OSELTAMIVIR CARBOXYLATE] | 61.2 µM

Assay: Inhibition of Influenza A virus H5N1 neuraminidase

Row | SMILES | IC50
4 | C/C(=N\NC(=O)Cc1cccc2ccccc12)c1ccc(NC(=O)Cc2cccs2)cc1 | 2.78 µM
5 | C/C(=N\NC(=O)c1ccc([N+](=O)[O-])cc1)c1ccc(NC(=O)c2ccco2)cc1 | 1.53 µM
6 | C/C(=N\NC(=O)c1ccc(Cl)cc1)c1ccc(NC(=O)c2ccco2)cc1 | 21.3 µM
7 | C/C(=N\NC(=O)c1ccc([N+](=O)[O-])cc1)c1ccc(NC(=O)Cc2cccs2)cc1 | 6.1 µM
8 | COc1ccc(C(=O)N/N=C(\C)c2ccc(NC(=O)Cc3cccs3)cc2)cc1 | 0.13 µM
9 | C/C(=N\NC(=O)c1ccc(F)cc1)c1ccc(NC(=O)c2ccco2)cc1 | 19.4 µM
10 | C/C(=N\NC(=O)Cc1cccc2ccccc12)c1ccc(NC(=O)c2ccco2)cc1 | 46.8 µM
11 | C/C(=N\NC(=O)c1ccc(Cl)cc1)c1ccc(NC(=O)Cc2cccs2)cc1 | 0.31 µM
12 | C/C(=N\NC(=O)c1ccc(C(C)(C)C)cc1)c1ccc(NC(=O)Cc2cccs2)cc1 | 0.94 µM
13 | COc1ccc(C(=O)N/N=C(\C)c2ccc(NC(=O)c3ccco3)cc2)cc1 | 32 µM
14 | C/C(=N\NC(=O)c1ccc(F)cc1)c1ccc(NC(=O)Cc2cccs2)cc1 | 23.6 µM
15 | C/C(=N\NC(=O)c1ccc(O)cc1)c1ccc(NC(=O)Cc2cccs2)cc1 | 0.65 µM
16 | C/C(=N\NC(=O)c1ccc(C(C)(C)C)cc1)c1ccc(NC(=O)c2ccco2)cc1 | 28.6 µM
17 | C/C(=N\NC(=O)c1ccc(O)cc1)c1ccc(NC(=O)c2ccco2)cc1 | 0.2 µM
18 | CCC(CC)O[C@@H]1C=C(C(=O)O)C[C@H](N)[C@H]1NC(C)=O [OSELTAMIVIR CARBOXYLATE] | 0.31 µM
